Drawing on patent US20220033432A1, “ANTI-HEPATITIS B VIRUS AGENT” (priority 2019, published 2022), this text covers CC50 and EC50 for seven compounds.

Where two headings read alike, the source gives them in different places.

The nature of data set [1]: Cytotoxicity test (WST-1) in HepG2 NTCP-myc cells. In kind it is cell-based. Particulars: human, 7 days culture, read-out: CC50 (50% cytotoxic concentration). The procedure: HepG2 NTCP-myc cells were seeded at a concentration of 2×10^4 cells/well. 24 hours later, the compound of Example 1 was diluted to have a concentration of 0, 0.49, 0.97, 1.95, 3.90, 7.81, 15.6, 31.3, 62.5, 125, 250, 500, and 1000 nM, and added to the cells. The HepG2 NTCP-myc cells were cultured for 7 days. After the culture, 10 μl of Premix WST-1 Cell Proliferation Assay System (TaKaRa) was added, and the cells were cultured at 37° C. for 2 hours. Thereafter, absorbance was determined at 450 nm using a microplate reader.
The CC50 (50% cytotoxic concentration) was calculated from a graph showing the relationship between the concentration of the compound and cytotoxicity.

Data set [2] has as its system HBV. The data set is described as follows: Anti-HBV activity: intracellular HBV DNA by quantitative PCR in HepG2.2.15 cells. In kind it is cell-based. Particulars: Hepatitis B virus, read-out: EC50 (50% effective concentration), anti-HBV activity. On the procedure: Anti-HBV activity was evaluated by quantitative PCR for determining the amount of HBV DNA in cells on the seventh day after the addition of the agent, using the HepG2.2.15 cell line of HBV-producing cells obtained by introducing a gene having a length twice that of the HBV genome into the human liver cancer cell line HepG2. For PCR of HBV DNA, a forward primer (HBV-S190F; 5′-GCT CGT OTT ACA GGC GGG-3′: SEQ ID NO: 1) and a reverse primer (HBV-S703R; 5′-GAA CCA CTG AAC AAA TOG CAC TAG TA-3′: SEQ ID NO: 2) were used. PCR was performed by carrying out a reaction at 95° C. for 10 sec, 62° C. for 10 sec, and 72° C. for 30 sec for 35 cycles.
Specifically, HepG2.2.15 cells were seeded at a concentration of 1×10^5 cells/well. 24 hours later, the compounds of Example 1 and Comparative Example 1 were diluted to have a concentration of 0, 0.49, 0.97, 1.95, 3.90, 7.81, 15.6, 31.3, 62.5, 125, 250, 500, and 1000 nM, and added to the cells. After the cells were cultured for 7 days, each cytoplasmic compartment was collected, and DNA was purified by phenol-chloroform extraction. 20 ng of the purified DNA was used to measure the amount of intracellular HBV DNA by quantitative PCR.
The EC50 (50% effective concentration) was calculated from a graph showing the relationship between the concentration of the compound and anti-HBV activity.

Setting [3] is: 168 h, HepG2.2.15 cells, intracellular HBV DNA, day 7 after addition.

For `Nc1nc(Cl)c2ncn([C@@H]3O[C@H](CO)C(O)C3F)c2n1` (stereo partly drawn) [Example 1, 9-(2′-deoxy-2′-fluoro-β-D-arabinofuranos-1′-yl)-2-amino-6-chloropurine], in data set [1], the CC50 at 7 days is > 500000 nM. Besides, the EC50 in data set [2] (setting [3]) amounted to 11.8 nM.
As to `Nc1nc(N)c2ncn([C@@H]3O[C@H](CO)C(O)C3F)c2n1` (stereo partly drawn) [Example 4, 9-(2′-deoxy-2′-fluoro-β-D-arabinofuranos-1′-yl)-2-amino-6-aminopurine], in data set [1], the CC50 at 7 days was > 500000 nM. For the same compound, the EC50 in data set [2] (HepG2.2.15, 168 h) amounted to 2020 nM.
Take `Nc1nc(F)c2ncn([C@@H]3O[C@H](CO)C(O)C3F)c2n1` (stereo partly drawn) [Example 2, 9-(2′-deoxy-2′-fluoro-β-D-arabinofuranos-1′-yl)-2-amino-6-fluoropurine]: in data set [1], the CC50 at 7 days came out at 337000 nM. Besides, the EC50 in data set [2] (setting [3]) was 880 nM.
In the case of `OC[C@H]1O[C@@H](n2cnc3c(Cl)nc(Cl)nc32)[C@@H](F)[C@@H]1O` [Comparative Example 1, 2,6-dichloro-9-((2R,3S,4R,5R)-3-fluoro-4-hydroxy-5-(hydroxymethyl)tetrahydrofuran-2-yl)-9H-purine, reference compound], the EC50 in data set [2] (setting [3]) is > 10000 nM.
`COc1nc(N)nc2c1ncn2[C@@H]1O[C@H](CO)C(O)C1F` (stereo partly drawn) [Example 5, 9-(2′-deoxy-2′-fluoro-β-D-arabinofuranos-1′-yl)-2-amino-6-methoxypurine]: the CC50 at 7 days in data set [1] is > 500000 nM. Also, the EC50 in data set [2] (setting [3]) was 1630 nM.
For `Nc1nc(I)c2ncn([C@@H]3O[C@H](CO)C(O)C3F)c2n1` (stereo partly drawn) [Example 3, 9-(2′-deoxy-2′-fluoro-β-D-arabinofuranos-1′-yl)-2-amino-6-], in that order: > 500000 nM and 990 nM.
As to `N#Cc1nc(N)nc2c1ncn2[C@@H]1O[C@H](CO)C(O)C1F` (stereo partly drawn) [Example 6, 9-(2′-deoxy-2′-fluoro-β-D-arabinofuranos-1′-yl)-2-amino-6-cyanopurine], the CC50 at 7 days in data set [1] was > 500000 nM. Further, the EC50 in data set [2] (setting [3]) was determined as 930 nM.
